Here are results for 17 molecules from US7902354B2, “Lapachone compounds and methods of use thereof” (ArQule, Inc., priority 2006, dated 2011).

Molecules are shown by their SMILES.

What all share (assay type): cell-based
Assay [1] deals with A549 human lung carcinoma cells. Briefly: MTS cell viability assay, A549 human lung carcinoma cells. Particulars: A549, 4 h compound incubation, MTS, read-out: IC50 Values, Cancerous Cells, Lung A549.
Assay [2] relates to DU-145 human prostate carcinoma cells. Description: MTS cell viability assay, DU-145 human prostate carcinoma cells. The settings on record: DU-145, 4 h compound incubation, MTS, read-out: IC50 Values, Cancerous Cells, Prostate DU-145.
For assay [3], the system named is DLD-1 human colon carcinoma cells. Briefly: MTS cell viability assay, DLD-1 human colon carcinoma cells. The settings on record: DLD-1, 4 h compound incubation, MTS, read-out: IC50 Values, Cancerous Cells, Colon DLD-1.
Assay [4] deals with K-562 human leukemia cells. Briefly: MTS cell viability assay, K-562 human leukemia cells. Particulars: K562, K-562, 4 h compound incubation, MTS, read-out: IC50 Values, Cancerous Cells, Leukemia K-562.
Assay [5] deals with NCM-460 normal colon epithelial cells. Description: MTS cell viability assay, NCM-460 normal colon epithelial cells. Particulars: for IC50: Homo sapiens, NCM460, NCM-460, 4 h compound incubation, MTS, read-out: IC50 Values, Normal Cells, Colon NCM-460; for Fold Selectivity (NCM-460/DLD1): ratio of IC50 NCM-460 / DLD1. Background: Tetrazolium dyes change colour on reduction, which living cells bring about.

Assay [6] has as its system PACA-2 human pancreatic carcinoma cells. Description: MTS cell viability assay, PACA-2 human pancreatic carcinoma cells. The settings on record: PACA-2, 4 h compound incubation, MTS, read-out: IC50 Values, Cancerous Cells, Pancreas PACA-2.

As for `O=C1C(=O)c2ccc(F)cc2C2=C1SCC1(CCN(C(=O)Oc3cccc(C(F)(F)F)c3)CC1)O2` [Compound 100, 3-(trifluoromethyl)phenyl 9-fluoro-5,6-dioxo-5,6-dihydro-1′H-spiro[naphtho[1,2-b][1,4]oxathiine-2,4′-piperidine]-1′-carboxylate], the IC50 in assay [1] came to 8 µM; in assay [2], 1.39 µM; in assay [3] it was 1.13 µM; in assay [4] it was 1.37 µM; in assay [5] it was 5.67 µM; in assay [6] it was 1.32 µM. Besides, the “Fold Selectivity (NCM-460/DLD1)” value in assay [5] amounted to 5.0.
In the case of `O=C1C(=O)c2ccccc2C2=C1SCC1(CCN(C(=O)OCc3ccccc3)CC1)O2` [Compound 98, benzyl 5,6-dioxo-5,6-dihydro-1′H-spiro[naphtho[1,2-b][1,4]oxathiine-2,4′-piperidine]-1′-carboxylate], the concentration for half-maximal inhibition (IC50) in assay [1] was found to be 7.3 µM; in assay [2] it was 3.98 µM; in assay [3], 3.11 µM; in assay [4] it was 1.43 µM; in assay [5] it was 4.78 µM; in assay [6] it was 1.61 µM. The “Fold Selectivity (NCM-460/DLD1)” value in assay [5] is 1.5.
`CC(C)COCC(O)CN1CCC2(CC1)CSC1=C(O2)c2ccccc2C(=O)C1=O` (centres unmarked) [Compound 174, 1′-(2-hydroxy-3-isobutoxypropyl)spiro[naphtho[1,2-b][1,4]oxathiine-2,4′-piperidine]-5,6-dione]: the IC50 stood at 6.29 µM in assay [1]; 1.55 µM in assay [2]; 1.3 µM in assay [3]; 1.61 µM in assay [4]; 3.2 µM in assay [5]; 1.25 µM in assay [6]. For the same molecule, the “Fold Selectivity (NCM-460/DLD1)” value in assay [5] was 2.5.
`C=COC(=O)N1CCC2(CC1)CSC1=C(O2)c2ccccc2C(=O)C1=O` [Compound 94, vinyl 5,6-dioxo-5,6-dihydro-1′H-spiro[naphtho[1,2-b][1,4]oxathiine-2,4′-piperidine]-1′-carboxylate]: the IC50 in assay [1] worked out at 8.52 µM; in assay [2] it was 3.69 µM; in assay [3], 2.41 µM; in assay [4], 2.49 µM; in assay [5] it was 9.48 µM; in assay [6], 2.81 µM. Further, the “Fold Selectivity (NCM-460/DLD1)” value in assay [5] is given as 3.9.
Consider `O=C1C(=O)c2ccccc2C2=C1SCC1(CCN(CC(O)COc3ccc(Cl)cc3)CC1)O2` (centres unmarked) [Compound 176, 1′-[3-(4-chlorophenoxy)-2-hydroxypropyl]spiro[naphtho[1,2-b][1,4]oxathiine-2,4′-piperidine]-5,6-dione], for which the IC50 in assay [1] stood at 5.14 µM; in assay [2], 2.43 µM; in assay [3] it was 2.4 µM; in assay [4] it was 4.76 µM; in assay [5] it was 11 µM; in assay [6], 3 µM. Also, the “Fold Selectivity (NCM-460/DLD1)” value in assay [5] was 4.6.
For the molecule `O=C1C(=O)c2ccccc2C2=C1SCC1(CCN(CCOc3ccccc3)CC1)O2` [Compound 140, 1′-(2-phenoxyethyl)spiro[naphtho[1,2-b][1,4]oxathiine-2,4′-piperidine]-5,6-dione], the IC50 in assay [1] was 21.5 µM; in assay [2] it was 4.2 µM; in assay [3], 3.37 µM; in assay [4], 4.26 µM; in assay [5], 12.2 µM; in assay [6] it was 3.93 µM. Moreover, in assay [5], the “Fold Selectivity (NCM-460/DLD1)” value is on record as 3.6.
Regarding `Cc1cc(C(=O)N2CCC3(CC2)CSC2=C(O3)c3ccccc3C(=O)C2=O)nn1C` [Compound 45, 1′-[(1,5-dimethyl-1H-pyrazol-3-yl)carbonyl]spiro[naphtho[1,2-b][1,4]oxathiine-2,4′-piperidine]-5,6-dione], the concentration for half-maximal inhibition (IC50) in assay [1] was 19.7 µM; in assay [2] it was 4.3 µM; in assay [3] it was 4 µM; in assay [4], 3.95 µM; in assay [5], 9.84 µM; in assay [6], 4.49 µM. For the same molecule, the “Fold Selectivity (NCM-460/DLD1)” value in assay [5] is recorded as 2.5.
Take `O=C1C(=O)c2ccccc2C2=C1SCC1(CCN(C(=O)c3ccccc3I)CC1)O2` [Compound 49, 1′-(2-iodobenzoyl)spiro[naphtho[1,2-b][1,4]oxathiine-2,4′-piperidine]-5,6-dione]: the half-maximal inhibitory concentration (IC50) in assay [1] came out at 5.58 µM; in assay [2] it was 4.11 µM; in assay [3], 2.87 µM; in assay [4] it was 1.8 µM; in assay [5], 7.72 µM; in assay [6], 2.39 µM. The “Fold Selectivity (NCM-460/DLD1)” value in assay [5] is recorded as 2.7.
As for `CCc1ccc(OCC(O)CN2CCC3(CC2)CSC2=C(O3)c3ccccc3C(=O)C2=O)cc1` (centres unmarked) [Compound 170, 1′-[3-(4-ethylphenoxy)-2-hydroxypropyl]spiro[naphtho[1,2-b][1,4]oxathiine-2,4′-piperidine]-5,6-dione], the IC50 in assay [1] stood at 4.69 µM; in assay [2] it was 1.42 µM; in assay [3], 1.49 µM; in assay [4], 5.31 µM; in assay [5], 14 µM; in assay [6] it was 1.37 µM. Further, the “Fold Selectivity (NCM-460/DLD1)” value in assay [5] came out at 9.4.
For the molecule `Cc1cccc(C(=O)N2CCC3(CC2)CSC2=C(O3)c3ccccc3C(=O)C2=O)c1` [Compound 60, 1′-(3-methylbenzoyl)spiro[naphtho[1,2-b][1,4]oxathiine-2,4′-piperidine]-5,6-dione], the IC50 in assay [1] was found to be 8.59 µM; in assay [2], 4.16 µM; in assay [3], 2.21 µM; in assay [4], 3.38 µM; in assay [5], 10.5 µM; in assay [6], 2.39 µM. For the same molecule, the “Fold Selectivity (NCM-460/DLD1)” value in assay [5] is reported as 4.8.
In the case of `CC(C)CN1CCC2(CC1)CSC1=C(O2)c2ccccc2C(=O)C1=O` [Compound 126, 1′-isobutylspiro[naphtho[1,2-b][1,4]oxathiine-2,4′-piperidine]-5,6-dione], the half-maximal inhibitory concentration (IC50) in assay [1] was determined as 5 µM; in assay [2], 4.05 µM; in assay [3], 3.12 µM; in assay [4], 1.63 µM; in assay [5], 5.26 µM; in assay [6], 1.44 µM. The “Fold Selectivity (NCM-460/DLD1)” value in assay [5] is reported as 1.7.
As to `O=C1C(=O)c2ccccc2C2=C1SCC1(CCN(CC(O)c3ccccc3)CC1)O2` (centres unmarked) [Compound 167, 1′-(2-hydroxy-2-phenylethyl)spiro[naphtho[1,2-b][1,4]oxathiine-2,4′-piperidine]-5,6-dione], the 50% inhibitory concentration (IC50) came out at 7.56 µM in assay [1]; 2.76 µM in assay [2]; 1.35 µM in assay [3]; 1.53 µM in assay [4]; 3.68 µM in assay [5]; 1.26 µM in assay [6]. The “Fold Selectivity (NCM-460/DLD1)” value in assay [5] was 2.7.
Turning to `O=C1C(=O)c2ccccc2C2=C1SCC1(CCN(CC(O)COCc3ccco3)CC1)O2` (centres unmarked) [Compound 165, 1′-[3-(2-furylmethoxy)-2-hydroxypropyl]spiro[naphtho[2-b][1,4]oxathiine-2,4′-piperidine]-5,6-dione], the 50% inhibitory concentration (IC50) in assay [1] was found to be 6.73 µM; in assay [2] it was 3.08 µM; in assay [3] it was 1.92 µM; in assay [4], 2.31 µM; in assay [5], 4.71 µM; in assay [6] it was 1.44 µM. Moreover, in assay [5], the “Fold Selectivity (NCM-460/DLD1)” value amounted to 2.5.
With `O=C1C(=O)c2ccccc2C2=C1SCC1(CCN(CC3CC3)CC1)O2` [Compound 122, 1′-(cyclopropylmethyl)spiro[naphtho[1,2-b][1,4]oxathiine-2,4′-piperidine]-5,6-dione], the concentration for half-maximal inhibition (IC50) in assay [1] came to 6.02 µM; in assay [2], 2.02 µM; in assay [3] it was 1.66 µM; in assay [4] it was 1.45 µM; in assay [5] it was 3.37 µM; in assay [6] it was 1.31 µM. Moreover, in assay [5], the “Fold Selectivity (NCM-460/DLD1)” value is 2.0.
For `O=C1C(=O)c2ccccc2C2=C1SCC1(CCN(C(=O)CSc3ccccc3)CC1)O2` [Compound 48, 1′-[(phenylthio)acetyl]spiro[naphtho[1,2-b][1,4]oxathiine-2,4′-piperidine]-5,6-dione], the IC50 in assay [1] amounted to 11.8 µM; in assay [2] it was 4.12 µM; in assay [3], 1.55 µM; in assay [4], 1.5 µM; in assay [5], 5.7 µM; in assay [6] it was 2.37 µM. Further, in assay [5], the “Fold Selectivity (NCM-460/DLD1)” value was found to be 3.7.
Consider `O=C1C(=O)c2ccccc2C2=C1SCC1(CCN(S(=O)(=O)c3cccc(Cl)c3)CC1)O2` [Compound 82, 1′-[(3-chlorophenyl)sulfonyl]spiro[naphtho[1,2-b][1,4]oxathiine-2,4′-piperidine]-5,6-dione], for which the IC50 in assay [1] is 15.3 µM; in assay [2] it was 7.88 µM; in assay [3] it was 8.88 µM; in assay [4], 10 µM; in assay [5], 21.1 µM; in assay [6] it was 4.59 µM. The “Fold Selectivity (NCM-460/DLD1)” value in assay [5] stood at 2.4.
On to `O=C1C(=O)c2ccccc2C2=C1SCC1(CCN(C(=O)C3CCCCC3C(=O)O)CC1)O2` (centres unmarked) [Compound 231, 2-[(5,6-dioxo-5,6-dihydro-1′H-spiro[naphtho[1.2-b][1,4]oxathiine-2,4′-piperidin]-1′-yl)carbonyl]cyclohexanecarboxylic acid], for which the IC50 in assay [1] is 27.9 µM; in assay [2], 12 µM; in assay [3], 9.27 µM; in assay [4], 10.6 µM; in assay [5], 12.3 µM; in assay [6], 4.84 µM. Further, the “Fold Selectivity (NCM-460/DLD1)” value in assay [5] is 1.3.

As a reminder, the IC50 is the concentration that gives 50% inhibition.
